Reference: patent publication US20130273649A1, “Culture medium for pluripotent stem cells” (UNIVERSITY OF SOUTHERN CALIFORNIA, priority 2012, published 2013)

Experiments:
H9 human ESCs = test: Human ESC self-renewal culture; assay type: cell-based; conditions: compared to IWR-1, XAV939 and JW55
From the text: As human ESCs share defining features with mouse EpiSCs (Hanna et al., 2010; Rossant, 2008; Tesar et al., 2007), we tested whether modulating β-catenin function can also promote human ESC self-renewal. […] Next, we examined the effect of CHIR/XAV and CHIR/IWR-1 on human ESC self-renewal. […] Similar results were obtained in H1 and HES3 human ESCs (data not shown). […] Moreover, human ESCs maintained in CHIR/IWR-1 express pluripotency markers Oct4, Nanog and Sox2 (FIG. 7E), and retain the ability to differentiate into cells of all three germ layers, both in vitro and in vivo (FIGS. 7F and 7G).
(§1) The basal medium for mouse EpiSC culture is the conventional mouse ESC medium, which consists of GMEM (Sigma) supplemented with 10% fetal bovine serum (FBS) (Hyclone), 2 mM L-glutamine (Invitrogen), 1 mM sodium pyruvate (Invitrogen), 1% nonessential amino acids (Invitrogen), and 0.1 mM (3-mercaptoethanol. Mouse EpiSCs were derived and maintained in the basal medium supplemented with FGF2/activin, CHIR/XAV, or CHIR/IWR-1. The basal medium for rat EpiSC culture is N2B27 (Tong et al., 2011), which was prepared by mixing 500 ml of DMEM/F12 (Invitrogen) with 500 ml of Neurobasal™ medium (Invitrogen), and adding 5 ml of N2 (Invitrogen), 10 ml of B27 (Invitrogen), 5 ml of Glutamax™ (Invitrogen), and 1 ml of 0.1 M β-mercaptoethanol (Sigma). The basal medium for human ESC culture consists of Knockout™ DMEM/F12 supplemented with 20% KSR (Invitrogen), 1% nonessential amino acids, 2 mM L-glutamine, and 0.1 mM (3-mercaptoethanol. Human ESCs were cultured in the basal medium supplemented with FGF2, CHIR/XAV, or CHIR/IWR-1.
H1, H9, HES-2 and HES-3 human ESC lines were kindly provided by the University of Southern California Stem Cell Core Facility. Human ESCs were routinely maintained on γ-irradiated MEF feeders in Knockout™ DMEM medium (Invitrogen) supplemented with 20% Knockout™ serum replacement (KSR; Invitrogen), 10 ng/ml FGF2 (PeproTech), 1% nonessential amino acids, 2 mM L-glutamine, and 0.1 mM β-mercaptoethanol. […]

Wnt pathway = conditions: relative to IWR-1; cited from earlier work
mouse EpiSCs = test: Mouse EpiSC self-renewal culture; assay type: cell-based; conditions: compared to IWR-1, XAV939 and JW55
From the text: We therefore reasoned that if CHIR induces EpiSC differentiation through stabilization of β-catenin, de-stabilization of β-catenin might promote EpiSC self-renewal. We tested this hypothesis by administering the tankyrase inhibitor XAV939 to mouse EpiSC cultures. XAV939-mediated inhibition of tankyrase stabilizes Axin, leading to the formation of the β-catenin destruction complex, composed of GSK3, Axin and adenomatous polyposis coli (APC) (Huang et al., 2009). […] EpiSCs cultured in CHIR/XAV could be routinely passaged by single-cell dissociation and replating onto gelatin-coated dishes, and could be cryo-preserved and recovered at high efficiency by standard techniques.
final concentrations: CHIR99021 (3 μM), PD0325901 (1 μM), XAV939 (Sigma, 2 μM), IWR-1 (Sigma, 2.5 μM), IWP-2 (Stemgent, 2.5 μM), Pyrvinium (Sigma, 100 nM), recombinant human FGF2 (PeproTech, 10 ng/ml), and recombinant human activin A (PeproTech, 10 ng/ml). CHIR99021 and PD0325901 were synthesized in the Division of Signal Transduction Therapy, University of Dundee, UK.
as §1
Post-implantation epiblasts were isolated from mouse or rat embryos and dissociated into small clumps as previously described (Chenoweth and Tesar, 2010). Epiblast fragments were placed into 4-well plates pre-coated with 0.1% gelatin (for mouse epiblasts) or pre-seeded with γ-irradiated mouse embryonic fibroblasts (MEFs) (for rat epiblasts) and cultured in either the FGF2/activin or the CHIR/XAV conditions. Emerging EpiSCs were trypsinized and expanded every 2-3 days at a subculture ratio of 1:4. Animal experiments were performed according to the investigator's protocols approved by the University of Southern California Institutional Animal Care and Use Committee.

O=C1C([C@H]2CC[C@H](C(=O)Nc3cccc4cccnc34)CC2)C(=O)[C@H]2[C@H]3CC[C@H](C3)[C@@H]12 (stereo partly drawn) [53AH, (1R,4r)-4-((2s,3aR,4R,7S,7aS)-1,3-dioxooctahydro-1H-4,7-methanoinden-2-yl)-N-(quinolin-8-yl)cyclohexanecarboxamide]
robustness for long-term expansion of human ESCs (H9 human ESCs): more robust for long-term expansion | potency in Wnt inhibition compared to IWR-1 (Wnt pathway): 5 fold | robustness for long-term expansion of mouse EpiSCs (mouse EpiSCs): more robust for long-term expansion
